In article doi:10.1101/2025.03.25.645215v1 (biorxiv, 2025) one finds IC50 and Km data, which are given here for 14 molecules.

One data set deals with SERT (hSERT) (Homo sapiens, UniProt P31645). Nature of the data set: 3H-5HT uptake inhibition, HEK293, 384-well. In kind it is cell-based.
Data set [1] relates to NTT4/SLC6A17 (NTT4-B^0AT2 chimera). Nature of the data set: 3H-proline uptake inhibition, HEK293, 384-well. In kind it is cell-based. The conditions noted are these: blanket statement for all 1,5-benzodiazepine analogs.
For another data set, the target named is GAT1 (hGAT1) (Homo sapiens, UniProt P30531). Nature of the data set: 3H-GABA uptake inhibition, HEK293, 384-well. In kind it is cell-based.
Chain of GAT1 (hGAT1) (P30531 whole entry): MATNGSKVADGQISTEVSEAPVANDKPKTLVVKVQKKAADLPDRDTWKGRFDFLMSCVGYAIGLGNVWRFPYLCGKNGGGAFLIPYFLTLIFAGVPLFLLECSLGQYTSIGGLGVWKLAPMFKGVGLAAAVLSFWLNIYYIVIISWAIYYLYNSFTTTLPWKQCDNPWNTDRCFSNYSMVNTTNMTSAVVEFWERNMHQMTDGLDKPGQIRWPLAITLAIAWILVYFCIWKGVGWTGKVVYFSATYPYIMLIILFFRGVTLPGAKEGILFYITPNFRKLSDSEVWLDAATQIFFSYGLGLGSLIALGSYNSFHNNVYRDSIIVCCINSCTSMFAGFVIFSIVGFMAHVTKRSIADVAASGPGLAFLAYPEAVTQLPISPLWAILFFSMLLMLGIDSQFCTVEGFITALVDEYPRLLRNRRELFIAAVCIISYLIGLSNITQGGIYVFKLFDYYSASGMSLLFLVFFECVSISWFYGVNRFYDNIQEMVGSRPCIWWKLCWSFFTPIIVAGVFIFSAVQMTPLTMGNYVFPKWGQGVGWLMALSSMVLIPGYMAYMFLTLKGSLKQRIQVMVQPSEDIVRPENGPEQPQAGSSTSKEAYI
Data set [2] deals with T1, B^0AT2/SLC6A15 (eGFP-hSLC6A15) (Homo sapiens, UniProt Q9H2J7).
T1 sequence (Q9H2J7 1-730): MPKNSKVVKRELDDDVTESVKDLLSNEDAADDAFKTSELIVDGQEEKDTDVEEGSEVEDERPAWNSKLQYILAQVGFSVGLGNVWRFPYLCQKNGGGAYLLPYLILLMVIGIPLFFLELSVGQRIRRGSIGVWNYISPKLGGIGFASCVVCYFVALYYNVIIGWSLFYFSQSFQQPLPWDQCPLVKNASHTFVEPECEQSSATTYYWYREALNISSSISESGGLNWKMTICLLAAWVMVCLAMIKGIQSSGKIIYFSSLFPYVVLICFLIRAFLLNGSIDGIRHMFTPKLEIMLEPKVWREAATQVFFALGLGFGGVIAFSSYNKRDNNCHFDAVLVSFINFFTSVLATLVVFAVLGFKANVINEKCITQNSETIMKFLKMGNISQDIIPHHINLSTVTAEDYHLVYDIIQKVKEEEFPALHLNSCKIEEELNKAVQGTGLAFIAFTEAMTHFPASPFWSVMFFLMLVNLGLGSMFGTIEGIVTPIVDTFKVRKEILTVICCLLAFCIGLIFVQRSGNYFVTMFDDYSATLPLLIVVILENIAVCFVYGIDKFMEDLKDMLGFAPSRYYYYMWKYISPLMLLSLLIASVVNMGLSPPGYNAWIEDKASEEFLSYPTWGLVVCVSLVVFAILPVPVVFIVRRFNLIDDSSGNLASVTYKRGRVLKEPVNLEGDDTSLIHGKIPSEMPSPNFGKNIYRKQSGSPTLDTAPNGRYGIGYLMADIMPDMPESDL
Nature of the data set: cell-based. Details: species or system HEK293 eGFP-hSLC6A15.

For data set [3], the target named is T1, B^0AT2/SLC6A15 (eGFP-hSLC6A15). Nature of the data set: cell-based. Details: species or system HEK293 eGFP-hSLC6A15. The source holds these as a separate data set.
Another data set addresses DAT (hDAT) (Homo sapiens, UniProt Q01959). The experiment in a line: 3H-dopamine uptake inhibition, HEK293, 384-well. In kind it is cell-based.
In data set [4] the target is T1, B^0AT2/SLC6A15 (eGFP-hSLC6A15). Nature of the data set: cell-based. Details: species or system HEK293 eGFP-hSLC6A15. The source holds these as a separate data set.
Data set [5] deals with T2, B^0AT2/SLC6A15 (AAV mouse SLC6A15 in primary hippocampal neurons) (Mus musculus, UniProt Q8BG16).
T2 sequence (Q8BG16 1-729): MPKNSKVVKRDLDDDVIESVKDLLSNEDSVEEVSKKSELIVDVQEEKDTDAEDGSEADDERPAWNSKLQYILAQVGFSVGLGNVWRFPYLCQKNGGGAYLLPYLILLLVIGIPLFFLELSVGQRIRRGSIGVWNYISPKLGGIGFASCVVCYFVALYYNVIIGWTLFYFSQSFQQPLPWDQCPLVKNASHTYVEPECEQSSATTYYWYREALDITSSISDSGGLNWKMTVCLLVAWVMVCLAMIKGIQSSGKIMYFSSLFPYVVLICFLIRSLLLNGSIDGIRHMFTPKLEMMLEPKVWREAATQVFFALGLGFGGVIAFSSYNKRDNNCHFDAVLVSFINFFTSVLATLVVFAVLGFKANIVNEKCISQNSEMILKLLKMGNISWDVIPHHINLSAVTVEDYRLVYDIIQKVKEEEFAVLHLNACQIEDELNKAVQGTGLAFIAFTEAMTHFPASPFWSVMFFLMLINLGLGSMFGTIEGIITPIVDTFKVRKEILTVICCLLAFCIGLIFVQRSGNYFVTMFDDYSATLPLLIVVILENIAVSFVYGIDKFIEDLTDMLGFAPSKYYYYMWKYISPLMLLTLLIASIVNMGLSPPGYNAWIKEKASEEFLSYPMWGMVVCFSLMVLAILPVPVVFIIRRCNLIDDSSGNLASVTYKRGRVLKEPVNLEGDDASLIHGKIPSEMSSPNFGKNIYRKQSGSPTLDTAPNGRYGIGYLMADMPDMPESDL
Nature of the data set: 3H-proline uptake inhibition, AAV-transduced primary hippocampal neurons. Format: cell-based.

Data set [6] has as its target T1, B^0AT2/SLC6A15 (eGFP-hSLC6A15). The experiment in a line: inhibition of 3H-proline uptake, HEK293. Format: cell-based.
The target is the same in data set [7]. Nature of the data set: inhibition of 3H-proline uptake by unlabelled proline, HEK293. Format: cell-based.
Substrate in data set [8]: O=C(O)[C@@H]1CCCN1
Nature of the data set: cells, lysate or membranes. The conditions noted are these: labelled compound, pH 7.4, 120 mM Na+.

Some results are limits rather than exact numbers.

One may read the IC50 as the concentration at which inhibition is half-maximal. A higher IC50 goes with weaker potency. A word on the Km: it is the concentration of substrate that gives half-maximal velocity.

Chain of SERT (hSERT) (P31645 whole entry): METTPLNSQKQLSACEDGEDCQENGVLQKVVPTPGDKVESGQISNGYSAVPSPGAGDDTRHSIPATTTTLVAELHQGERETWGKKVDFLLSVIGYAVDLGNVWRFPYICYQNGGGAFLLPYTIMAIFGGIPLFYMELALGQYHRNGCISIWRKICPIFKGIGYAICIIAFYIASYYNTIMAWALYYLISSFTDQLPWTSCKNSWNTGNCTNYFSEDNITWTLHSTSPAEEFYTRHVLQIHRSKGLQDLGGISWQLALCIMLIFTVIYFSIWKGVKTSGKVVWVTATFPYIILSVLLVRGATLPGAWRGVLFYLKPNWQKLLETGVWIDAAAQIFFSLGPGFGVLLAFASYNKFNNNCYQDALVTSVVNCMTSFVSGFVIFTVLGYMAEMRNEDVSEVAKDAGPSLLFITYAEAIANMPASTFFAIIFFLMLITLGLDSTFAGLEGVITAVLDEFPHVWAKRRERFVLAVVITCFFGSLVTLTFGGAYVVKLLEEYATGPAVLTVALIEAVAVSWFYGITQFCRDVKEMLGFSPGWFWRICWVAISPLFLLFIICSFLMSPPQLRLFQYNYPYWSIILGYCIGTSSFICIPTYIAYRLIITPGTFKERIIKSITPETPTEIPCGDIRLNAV
Chain of DAT (hDAT) (Q01959 whole entry): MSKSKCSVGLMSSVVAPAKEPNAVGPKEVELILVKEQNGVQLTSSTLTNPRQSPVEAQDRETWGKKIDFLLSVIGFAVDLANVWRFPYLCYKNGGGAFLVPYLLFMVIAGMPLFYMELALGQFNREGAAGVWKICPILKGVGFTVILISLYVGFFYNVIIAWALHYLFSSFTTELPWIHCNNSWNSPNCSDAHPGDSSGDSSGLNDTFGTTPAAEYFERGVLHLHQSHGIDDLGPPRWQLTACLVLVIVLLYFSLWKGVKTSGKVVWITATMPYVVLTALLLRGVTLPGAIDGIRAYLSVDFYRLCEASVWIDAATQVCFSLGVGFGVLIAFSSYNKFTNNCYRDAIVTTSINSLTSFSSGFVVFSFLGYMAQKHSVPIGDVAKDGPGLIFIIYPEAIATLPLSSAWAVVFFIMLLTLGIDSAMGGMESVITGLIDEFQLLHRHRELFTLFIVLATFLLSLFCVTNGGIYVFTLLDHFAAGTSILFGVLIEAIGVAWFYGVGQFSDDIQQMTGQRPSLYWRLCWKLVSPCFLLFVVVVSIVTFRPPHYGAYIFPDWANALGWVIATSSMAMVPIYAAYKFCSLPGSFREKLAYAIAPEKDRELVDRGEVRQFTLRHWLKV

For `COc1cc(C2C3=C(CCCC3=O)Nc3ccccc3N2C(=O)c2ccccc2)ccc1O` (stereo not drawn) [10a], the half-maximal inhibitory concentration (IC50) is more than 80 µM on SERT (hSERT), more than 80 µM in data set [1], more than 80 µM against GAT1 (hGAT1) and 0.93 ± 0.08 µM in data set [2].

Molecule `COc1ccc(C2C3=C(CCCC3=O)Nc3ccccc3N2C(=O)c2ccccc2)cc1OC` (stereo not drawn) [10b] showed an IC50 in [2] of 1.4 ± 0.2 µM.

For the molecule `COc1ccc(C2C3=C(CCCC3=O)Nc3ccccc3N2C(=O)c2ccccc2)cc1` (stereo not drawn) [10c], the midpoint of inhibition in data set [2], the IC50, lay at 0.66 ± 0.07 µM.

Molecule `O=C1CCCC2=C1C(c1ccc(Cl)c(Cl)c1)N(C(=O)c1ccccc1)c1ccccc1N2` (stereo not drawn) [10d] returned an IC50 in data set [2] of 2.5 ± 0.4 µM.

Take `O=C1CCCC2=C1C(c1ccc(F)cc1)N(C(=O)c1ccccc1)c1ccccc1N2` (stereo not drawn) [10e]: inhibition in [2] was half-maximal at 2.9 ± 0.6 µM (IC50).

As for `O=C1CCCC2=C1C(c1ccccc1)N(C(=O)c1ccccc1)c1ccccc1N2` (stereo not drawn) [10f], the IC50 in [2] was 1.2 ± 0.2 µM.

For `COc1cc(C2C3=C(CC(C)(C)CC3=O)Nc3ccccc3N2C(=O)c2ccccc2)ccc1O` (stereo not drawn) [11v], the IC50 against SERT (hSERT) is more than 80 µM; in data set [1], more than 80 µM; against GAT1 (hGAT1), more than 80 µM; in data set [3], 0.24 ± 0.02 µM.

Take `CC1(C)CC(=O)C2=C(C1)Nc1ccccc1N(C(=O)c1ccccc1)C2c1ccc2c(c1)OCO2` (stereo not drawn) [11x]: the half-inhibitory concentration (IC50) was more than 80 µM against SERT (hSERT); more than 80 µM against DAT (hDAT); more than 80 µM in data set [1]; more than 80 µM against GAT1 (hGAT1); 0.8 ± 0.3 µM in data set [3].

Regarding `COc1ccc(C2C3=C(CC(C)CC3=O)Nc3ccccc3N2C(=O)c2ccccc2)cc1` (stereo not drawn) [14c], the IC50 was more than 80 µM at SERT (hSERT); 0.24 ± 0.05 µM in data set [4]; more than 80 µM on DAT (hDAT); 1 ± 0.4 µM in data set [5]; more than 80 µM in data set [1]; more than 80 µM against GAT1 (hGAT1).

For `COc1ccc(C2C3=C(CC(c4ccco4)CC3=O)Nc3ccccc3N2C(=O)c2ccccc2)cc1` (stereo not drawn) [14d], the concentration for half-maximal inhibition (IC50) against SERT (hSERT) is more than 80 µM; in data set [4], 0.49 ± 0.03 µM; at DAT (hDAT), more than 80 µM; in [1], more than 80 µM; against GAT1 (hGAT1), more than 80 µM.

With `COc1ccc(C2C3=C(CC(c4ccc(OC)c(OC)c4)CC3=O)Nc3ccccc3N2C(=O)c2ccccc2)cc1` (stereo not drawn) [14f], the 50% inhibitory concentration (IC50) (against SERT (hSERT); in [4]; in data set [1]; against GAT1 (hGAT1)) was more than 80 µM in each case.

For `CC(C)C[C@H](N)C(=O)O` [leucine], in data set [6], the IC50 was 210 ± 30 µM.

`O=C(O)[C@@H]1CCCN1` [proline] returned a half-inhibitory concentration (IC50) in data set [7] of 257 ± 53 µM.

B1: B^0AT2/SLC6A15 (eGFP-hSLC6A15) (Homo sapiens) (protein)
chain: MPKNSKVVKRELDDDVTESVKDLLSNEDAADDAFKTSELIVDGQEEKDTDVEEGSEVEDERPAWNSKLQYILAQVGFSVGLGNVWRFPYLCQKNGGGAYLLPYLILLMVIGIPLFFLELSVGQRIRRGSIGVWNYISPKLGGIGFASCVVCYFVALYYNVIIGWSLFYFSQSFQQPLPWDQCPLVKNASHTFVEPECEQSSATTYYWYREALNISSSISESGGLNWKMTICLLAAWVMVCLAMIKGIQSSGKIIYFSSLFPYVVLICFLIRAFLLNGSIDGIRHMFTPKLEIMLEPKVWREAATQVFFALGLGFGGVIAFSSYNKRDNNCHFDAVLVSFINFFTSVLATLVVFAVLGFKANVINEKCITQNSETIMKFLKMGNISQDIIPHHINLSTVTAEDYHLVYDIIQKVKEEEFPALHLNSCKIEEELNKAVQGTGLAFIAFTEAMTHFPASPFWSVMFFLMLVNLGLGSMFGTIEGIVTPIVDTFKVRKEILTVICCLLAFCIGLIFVQRSGNYFVTMFDDYSATLPLLIVVILENIAVCFVYGIDKFMEDLKDMLGFAPSRYYYYMWKYISPLMLLSLLIASVVNMGLSPPGYNAWIEDKASEEFLSYPTWGLVVCVSLVVFAILPVPVVFIVRRFNLIDDSSGNLASVTYKRGRVLKEPVNLEGDDTSLIHGKIPSEMPSPNFGKNIYRKQSGSPTLDTAPNGRYGIGYLMADIMPDMPESDL
In the case of B1, in data set [8], the Km is 960 ± 51 µM.
